Reference: PMC8032624, “Prediction of dose-dependent in vivo acetylcholinesterase inhibition by profenofos in rats and humans using physiologically based kinetic (PBK) modeling-facilitated reverse dosimetry” (Archives of Toxicology, 2021)

Legend:
[1] = target: AChE (Homo sapiens, UniProt P22303); experiment: In vitro inhibition of human recombinant AChE (Ellman); assay type: biochemical; design: purchased Sigma-Aldrich; conditions: 15-min incubation at 37 °C
Method: To perform reverse dosimetry of in vitro AChE inhibition by profenofos, first the in vitro AChE activity in the absence or presence of increasing concentrations of profenofos was determined. For humans, commercially available recombinant AChE was used. For rats, no commercially available recombinant AChE was available, so rat AChE was obtained from rat blood as described below.
AChE inhibition was determined following the protocol of Ellman et al. ([1961]) as modified by Chambers and Chambers ([1989]). The concentration of acetylthiocholine and recombinant AChE were optimized to be linear for metabolite formation (data not shown). Human recombinant AChE was dissolved in 0.1 M sodium phosphate (pH 7.4) containing 1 mg/ml BSA (which was present to stabilize human recombinant AChE (Rosenfeld and Sultatos [2006])) to reach an enzyme concentration of 200 U/ml. Subsequently, the AChE enzyme solution was further diluted with 0.1 M sodium phosphate (pH 7.4) containing 1 mg/ml BSA to a working concentration of 1 U/ml. […] Subsequently, the time-dependent increase in absorbance due to formation of chromophore (DTNB + thiocholine) was measured at 37 °C using a wavelength of 412 nm during a period of 10 min, using a spectrophotometer (SpectraMax, Molecular Devices, UK).
AChE activity was expressed as enzyme activity (percent of control). […]

[2] = test system: RBC AChE; conditions: adult rats, single exposure; ref EPA [2016]; cited from earlier work
[3] = Control incubations without microsomes, cytosol or plasma (spontaneous hydrolysis); assay type: physicochemical; conditions: 100 mM Tris HCl pH 7.4, 37 °C, 2 min, no enzyme preparation
Method: Incubations of profenofos with rat and human liver microsomes, liver cytosol and plasma were performed to quantify in vitro rates of BCP formation. Conditions were optimized to be linear for metabolite formation with regard to incubation time and microsomal, cytosolic and plasma protein concentration (data not shown). […] The mixture was centrifuged at 14,000g for 20 min at 4 °C and the supernatant was analyzed using UPLC-UV.
The conversion of profenofos to BCP was measured in incubations with both rat and human liver microsomes, cytosol and plasma. […] In control incubations, small amounts (max 0.04% of the amount of profenofos added) of BCP were detected, indicating some spontaneous hydrolysis of profenofos in the aqueous environment, which has also been observed in previous studies (Aly and Badawy [1982]). The BCP formation data for microsomes, cytosol and plasma were, therefore, corrected for BCP levels detected in control incubations.

[4] = in vitro; assay type: in vitro ADME; conditions: conversion of profenofos to BCP; for Km: pH 7.4
Method: Incubations of profenofos with rat and human liver microsomes, liver cytosol and plasma were performed to quantify in vitro rates of BCP formation. Conditions were optimized to be linear for metabolite formation with regard to incubation time and microsomal, cytosolic and plasma protein concentration (data not shown). The final incubations were carried out in 100 mM Tris HCl (pH 7.4, 37 °C) containing (final concentrations) 5 mM MgCl2, 2 mM CaCl2 [to stimulate PON1 activity (Carr et al. [2015])], 2 mM NADPH (cofactor to also include CYP-mediated metabolism), enzyme preparation (final concentration 2 mg/ml for human liver microsomes and cytosol and 4.4 mg/ml for human plasma; 0.5 mg/ml for rat microsomes and cytosol and 1.65 mg/ml for rat plasma) and profenofos (at final concentrations ranging from 1 to 100 μM, added from 100 times concentrated stock solutions in DMSO). Control incubations were performed in the absence of microsomes, cytosol or plasma. After 2 min pre-incubation, the reaction was initiated by adding the substrate and mixtures were incubated for 2 min in a 37 °C water bath. The total volume of the incubation mixtures was 200 μl. The reaction was terminated by the addition of 50 μl ice cold ACN and samples were kept on ice. The mixture was centrifuged at 14,000g for 20 min at 4 °C and the supernatant was analyzed using UPLC-UV.
All samples from incubations were analyzed using a Waters Acquity UPLC H class system that consisted of a quaternary solvent manager, a sample manager, and a photodiode array (PDA) detector, equipped with a Water Acquity UPLC® BEH C18 column (1.7 μm, 2.1 × 50 mm) and Waters Xbridge UPLC® BEH C18 pre-column (2.5 μM, 2.1 × 5 mm). The temperature of the column was kept at 40 °C and the auto sampler at 10 °C during the UPLC analysis. The mobile phases used for the analysis consisted of (A) 0.1% TFA in nanopure water and (B) 100% ACN. A gradient elution at a flow rate of 0.6 ml/min was applied for the analysis with the initial condition of 100% A:0% B (v/v), changing in a linear way to 0% A:100% B from 0 to 6 min, which was maintained for 30 s, and then changed back to the initial conditions in 30 s, which were maintained for 1 min. The injection volume for each sample was 3.5 μl.
Under these conditions, the retention times of profenofos and BCP were 4.76 and 3.37 min, respectively. The amounts of profenofos and BCP were quantified by integrating the peak areas at 237 nm using calibration curves that were prepared using commercially available standards.
Kinetic parameters including the apparent maximum velocity (Vmax) and the apparent Michaelis–Menten constant (Km) for BCP formation were obtained by fitting the data for the substrate concentration-dependent rate of conversion (expressed in nmol/min/mg protein) using GraphPad Prism 5, version 5.04 (San Diego, California, USA) to the standard Michaelis–Menten equation: V=Vmax∗S/(Km+S) in which the S represents the concentration of substrate, expressed in μM, V and Vmax the velocity and the maximum velocity of the reaction, respectively, expressed in nmol/min/mg protein, and Km the apparent Michaelis–Menten constant, expressed in μM. The kinetic parameter values for conversion of profenofos to BCP in the liver microsomes, liver cytosol and plasma were determined. To determine the catalytic efficiency, Vmax was divided by the Km.

Sequence of AChE (P22303 32-614): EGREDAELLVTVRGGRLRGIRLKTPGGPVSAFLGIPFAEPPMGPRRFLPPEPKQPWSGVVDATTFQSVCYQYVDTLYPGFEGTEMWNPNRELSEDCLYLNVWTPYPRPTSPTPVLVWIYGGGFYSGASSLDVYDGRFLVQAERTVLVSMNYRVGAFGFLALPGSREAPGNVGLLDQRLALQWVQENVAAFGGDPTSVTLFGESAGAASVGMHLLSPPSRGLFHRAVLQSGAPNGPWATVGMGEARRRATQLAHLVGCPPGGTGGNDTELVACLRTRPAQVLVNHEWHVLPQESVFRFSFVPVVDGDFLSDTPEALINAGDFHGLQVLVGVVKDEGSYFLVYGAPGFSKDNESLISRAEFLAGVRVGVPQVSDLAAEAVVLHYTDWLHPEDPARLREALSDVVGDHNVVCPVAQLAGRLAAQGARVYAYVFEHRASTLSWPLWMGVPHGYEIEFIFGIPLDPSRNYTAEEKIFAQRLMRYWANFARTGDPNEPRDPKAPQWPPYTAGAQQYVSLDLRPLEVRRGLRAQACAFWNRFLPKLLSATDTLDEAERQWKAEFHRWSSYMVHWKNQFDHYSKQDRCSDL

For CCCSP(=O)(OCC)Oc1ccc(Br)cc1Cl (stereo not drawn) [profenofos, O-(4-bromo-2-chlorophenyl) O-ethyl S-propyl phosphorothioate], the IC50 [1] is given as 302 nM, the “BMDL10 for RBC AChE inhibition” value [2] is given as 1.99 mg/kg bw and the “BCP detected in control incubations (spontaneous hydrolysis)” value [3] is given as ≤ 0.04 % of the amount of profenofos added. For the same compound, the Vmax ([4]; rat liver cytosol) was 0.95 nmol/min/mg cytosolic protein, the Vmax ([4]; rat liver microsomes) was 8.9 nmol/min/mg microsomal protein and the Vmax ([4]; rat plasma) was 0.68 nmol/min/mg plasma protein. It also gave a Km ([4]; rat liver cytosol) of 0.34 µM, a Km ([4]; rat liver microsomes) of 8.1 µM and a Km ([4]; rat plasma) of 3.6 µM.
